From paper PMC4357465, “Tool Compounds Robustly Increase Turnover of an Artificial Substrate by Glucocerebrosidase in Human Brain Lysates” (PLoS ONE, 2015)
“Also recorded” adds a separate entry of the source. Where two headings read alike, the source gives them in different places.

Tests used:
purified human GBA1 = biological target: T1, purified human GBA1 (Homo sapiens, UniProt P04062); assay: GBA1 enzymatic cell-free assay, turnover of 4MUG; assay type: biochemical
T1 construct: purchased R&D Systems 7410-GH-10; host or cells: alternatively made in house: baculovirus (pFastBac-1), expressed in SF-9 or SF-21 cells, purified from conditioned media
T1 sequence (P04062 40-536): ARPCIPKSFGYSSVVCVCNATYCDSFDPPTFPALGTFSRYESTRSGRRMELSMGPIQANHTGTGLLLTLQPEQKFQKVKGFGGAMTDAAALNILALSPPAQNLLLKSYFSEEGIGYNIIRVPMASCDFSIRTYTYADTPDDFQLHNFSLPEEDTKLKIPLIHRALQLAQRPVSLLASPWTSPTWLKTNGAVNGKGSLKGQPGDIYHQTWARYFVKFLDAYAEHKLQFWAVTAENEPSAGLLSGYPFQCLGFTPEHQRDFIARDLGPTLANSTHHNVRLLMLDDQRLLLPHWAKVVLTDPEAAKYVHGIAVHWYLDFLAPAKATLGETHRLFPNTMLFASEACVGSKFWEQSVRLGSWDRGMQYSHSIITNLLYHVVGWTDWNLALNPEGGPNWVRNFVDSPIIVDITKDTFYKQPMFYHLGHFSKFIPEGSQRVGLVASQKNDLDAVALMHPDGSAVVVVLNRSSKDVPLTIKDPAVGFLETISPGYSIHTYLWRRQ
Description: After incubation, 100 μl of assay buffer was added to the plate. The assay buffer was composed of 0.1 M citric acid and 0.2 M sodium phosphate dibasic adjusted to pH = 5.4 unless stated otherwise (McIlvaine Buffer). […] For IC50 and EC50 experiments using compounds an assay buffer of pH 5.4 was used.
The substrate, 4-methylumbelliferyl β-D-glucopyranoside (4MUG, Sigma, M3633) was then added to the plate to a final concentration of 1.7 mM (25 μl). 4MUG was freshly solubilized in water at 37°C prior to each experiment. The recombinant protein, compound, assay buffer, and substrate were incubated at 37°C for 30 minutes.
The specific activity was calculated off the 4MU standard curve by converting the relative fluorescence units (RFUs) to the concentration of the fluorescent product (GraphPad Prism 5.1). This interpolated value was then used to calculate the specific activity of the recombinant protein which was expressed as nmol/hr/ng protein for recombinant protein and nmol/hr/mg for tissue lysates (GBA1 tissue assay). The standard curve was always diluted in the same assay buffer as the samples, including the same pH. For experiments testing activity of GBA1 at different pH, a standard curve for each pH condition was used to calculate specific activity. When testing different pH conditions, buffer solutions were adjusted to obtain the desired pH using the McIlvaine’s Buffer recipe, and the pH of the buffer was verified. All assay buffers used in the pH experiments contained sodium taurocholate to a final concentration of 3.1 mM.
In experiments directly comparing enzymatic activities of GBA1, GBA2 and GBA3 (S1 Fig., S2 Fig. c, d) the following conditions were used. […] A 10-fold intermediate solution of compound serial dilution was prepared in an assay buffer; half log dilutions were used. […] 2 mM solution of 4MUG was prepared in an assay buffer. To start the reaction, 4.5 μl/well of this solution was added to the enzyme plate and was incubated for 30 minutes at 37°C. To stop the reaction, a 1M glycine solution, adjusted to pH = 10 using 1M NaOH was used. […] To test the effect of sodium taurocholate (Sigma, T4009), the assay was performed using the same procedure described in this paragraph. The assay buffer contained either 0mM (same as above), 3 mM, 7 mM or 20 mM Sodium Taurocholate.

recombinant GBA2 = biological target: T2, recombinant GBA2 (Homo sapiens, UniProt Q9HCG7); assay: cell-free 4MUG assay with recombinant GBA2; assay type: biochemical; conditions: dose response, within the concentrations tested
T2 construct: purchased Abcam ab163631
T2 sequence (Q9HCG7 1-927): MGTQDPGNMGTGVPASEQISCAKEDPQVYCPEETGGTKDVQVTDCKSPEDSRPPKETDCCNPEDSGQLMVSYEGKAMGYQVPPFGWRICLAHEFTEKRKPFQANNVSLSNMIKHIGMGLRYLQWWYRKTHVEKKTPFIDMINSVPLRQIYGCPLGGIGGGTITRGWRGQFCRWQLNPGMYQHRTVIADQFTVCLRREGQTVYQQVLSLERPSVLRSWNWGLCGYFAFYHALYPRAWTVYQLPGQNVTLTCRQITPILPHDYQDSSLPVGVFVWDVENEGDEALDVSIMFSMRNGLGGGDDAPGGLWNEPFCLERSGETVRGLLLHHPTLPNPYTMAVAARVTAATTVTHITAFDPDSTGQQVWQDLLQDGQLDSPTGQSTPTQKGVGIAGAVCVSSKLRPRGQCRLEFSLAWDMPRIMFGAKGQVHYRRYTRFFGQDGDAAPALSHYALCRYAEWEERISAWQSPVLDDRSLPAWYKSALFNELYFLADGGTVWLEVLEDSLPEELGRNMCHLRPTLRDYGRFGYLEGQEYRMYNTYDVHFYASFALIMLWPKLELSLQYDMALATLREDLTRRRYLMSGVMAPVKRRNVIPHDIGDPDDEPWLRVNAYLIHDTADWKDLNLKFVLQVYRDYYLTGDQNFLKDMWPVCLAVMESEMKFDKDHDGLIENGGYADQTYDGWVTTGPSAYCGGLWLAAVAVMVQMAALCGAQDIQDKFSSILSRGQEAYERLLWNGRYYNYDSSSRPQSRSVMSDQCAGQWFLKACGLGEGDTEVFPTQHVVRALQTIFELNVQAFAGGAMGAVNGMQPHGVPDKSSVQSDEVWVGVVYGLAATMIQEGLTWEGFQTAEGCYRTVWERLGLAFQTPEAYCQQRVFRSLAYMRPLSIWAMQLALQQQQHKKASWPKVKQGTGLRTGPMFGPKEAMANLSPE
Description: The assay buffer consisted of 44 mM Citric Acid, 111 mM Na2HPO4, pH 5.5, 0.1% Triton X-100. […] A 10-fold intermediate solution of compound serial dilution was prepared in an assay buffer; half log dilutions were used. In a black 384-well plate (ThermoFisher, 267461) we added 5 μl of enzyme solution and 1 μl of compounds when appropriate, and incubated for 30 minutes at room temperature. 2 mM solution of 4MUG was prepared in an assay buffer. To start the reaction, 4.5 μl/well of this solution was added to the enzyme plate and was incubated for 30 minutes at 37°C. To stop the reaction, a 1M glycine solution, adjusted to pH = 10 using 1M NaOH was used. The fluorescent signal was detected using the Envision Multilabel Plate Reader (Perkin Elmer) at excitation = 355nm and emission = 450nm.

| inhibition of GBA1 activity (purified human GBA1; 1 mM) | inhibition at 1 µM (purified human GBA1; read-out: inhibition of GBA1 activity) | inhibition at 1 µM (purified human GBA1; with sodium taurocholate, read-out: GBA1 % inhibition + NaTc) | inhibition at 1 µM (purified human GBA1; without sodium taurocholate, read-out: GBA1 % inhibition - NaTc) | effect on activity of recombinant GBA2 (recombinant GBA2; listed as isofagomine) | Structure (SMILES) | effect on activity of recombinant GBA2 (recombinant GBA2) |
| --- | --- | --- | --- | --- | --- | --- |
| more than 90% | – | – | – | – | O[C@H]1[C@H](O)[C@@H](O)[C@@H]2O[C@@H]2[C@@H]1O [CBE] | did not inhibit; also recorded: does not alter activity |
| – | > 90% | 95.9 ± 3.2% | 92.1 ± 2.3% | Minimal effect | OC[C@H]1CNC[C@@H](O)[C@@H]1O [Isofagomine, isofagomine] | almost no effect |
